Where a name gives a salt, the structure may show the parent alone. Bridge positions count the residues as written; N and C are the ends. Square brackets hold non-standard residues; d marks the D form. Peptide text beside a SMILES is read from it.
Tests used:
Type in all cases: in vivo, rat
insulin = assay: Suppression of insulin in arginine-stimulated rats; conditions: for reduction in insulin in vivo (in words): tested in vivo by standard methods
Protocol: (§1) Albino male rats are administered Nembutol intraperitoneally at a dose of 50 mg/kg. Fifteen minutes later a subcutaneous injection of the test compound or physiological saline is administered. Ten minutes later 0.5 ml. of arginine (300 mg/ml, pH 7.2) is injected into the heart. Five minutes after receipt of the arginine the rats are decapitated and blood is collected into Trasylol-EDTA. An appropriate aliquot is assayed for insulin and glucagon.

[1] = system: gastric acid secretion (total acid output); assay: Anti-secretory activity in pylorus-ligated rats (total acid output over four hours); conditions: for Percentage Inhibition (of Total Acid Output): i.d. administration, pylorus-ligated rats, 4 hr, versus control group
Protocol: The polypeptide of this invention was tested and found active parenterally (s.c.) in the following scientifically recognized, standard test for anti-secretory activity;
Male Charles River rats of Sprague-Dawley strain and 190 to 240 gm. body weight are food deprived for 24 hr. with water ad libitum until the test. Groups of ten rats each are assigned to either control or drug treatment. Pyloric ligation was performed under ether anesthesia through a midline laparotomy, and either control vehicle (0.25 methylcellulose) or drug in control vehicle was administered intraduodenally. The rats are sacrificed by CO2 asphyxiation four hours after pyloric ligation. The stomachs are removed and the gastric contents emptied into graduated centrifuge tubes. The gastric samples are centrifuged for 20 min. and those obviously contaminated by food, blood or feces are discarded. The volume of gastric fluid is recorded and the acid concentration of 1.0 ml. sample aliquots is measured by electrometric titration to pH 7.0 with 0.1 N NaOH. The calculated product of gastric volume (ml/4 hr.) and acid concentration (mEq/L) estimates the total acid output (TAO, mEq/4 hr.) over the four-hour test period.
An index of drug gastric antisecretory activity is reported at the end of the example illustrating its production. The results, expressed as percentage inhibition, show the reduction of acid secretion in drug-treated compared to control groups, based upon i.d. administration of 2 mg/kg and 0.5 mg/kg of the tested compound. In addition, the effect of the polypeptide in the control of insulin and glucagon secretion is reported at a dose of 750 micrograms per kilogram.

glucagon = assay: Suppression of glucagon in arginine-stimulated rats; conditions: for reduction in glucagon in vivo (in words): tested in vivo by standard methods
Protocol: as §1

[2] = listed as compound of this invention
[3] = listed as polypeptide of the invention

| Compound | Insulin (insulin; 750 μg/kg subcutaneous, arginine-stimulated rats, blood 15 min after dosing, control 283 ± 28) | reduction in insulin in vivo (in words) (insulin; [2]) | reduction in insulin in vivo (in words) (insulin; [3]) | Percentage Inhibition (of Total Acid Output) ([1]; 0.5 mg/kg) | Percentage Inhibition (of Total Acid Output) ([1]; 2 mg/kg) | anti-secretory activity (in words) ([1]; parenterally (s.c.)) | Glucagon (glucagon; 750 μg/kg subcutaneous, arginine-stimulated rats, blood 15 min after dosing, control 55 ± 5) | reduction in glucagon in vivo (in words) (glucagon; [2]) | reduction in glucagon in vivo (in words) (glucagon; [3]) | dose that effectively inhibits secretion of insulin (insulin; same test procedure) | dose that effectively inhibits secretion of glucagon (glucagon; same test procedure) |
| --- | --- | --- | --- | --- | --- | --- | --- | --- | --- | --- | --- |
| C[C@H](N)C(=O)NCC(=O)N[C@H]1CSSC[C@@H](C(=O)O)NC(=O)[C@H](CO)NC(=O)[C@H]([C@@H](C)O)NC(=O)[C@H](Cc2ccc(O)cc2)NC(=O)[C@H]([C@@H](C)O)NC(=O)[C@H](CCCCN)NC(=O)[C@@H](Cc2c[nH]c3ccccc23)NC(=O)[C@H](Cc2ccccc2)NC(=O)[C@H](Cc2ccccc2)NC(=O)[C@H](CC(N)=O)NC(=O)[C@H](CCCCN)NC1=O [Example 5, L-alanylglycyl-L-cysteinyl-L-lysyl-L-asparaginyl-L-phenylalanyl-L-phenylalanyl-D-tryptophyl-L-lysyl-L-threonyl-L-tyrosyl-L-threonyl-L-seryl-L-cysteine cyclic (3-14)-disulfide, triacetate-salt] (H-AGCKNFF[dW]KTYTSC-OH; disulfide 3-14) | 238 ± 42 μU/ml | no meaningful reduction | without materially affecting | 38% | 68% | active | 35 ± 9 pg/mL | no meaningful reduction | without materially affecting |  |  |
| C[C@H](N)C(=O)NCC(=O)N[C@H]1CSSC[C@@H](C(=O)O)NC(=O)[C@H](CO)NC(=O)[C@H]([C@@H](C)O)NC(=O)[C@H](Cc2ccccc2)NC(=O)[C@H]([C@@H](C)O)NC(=O)[C@H](CCCCN)NC(=O)[C@H](Cc2c[nH]c3ccccc23)NC(=O)[C@H](Cc2ccccc2)NC(=O)[C@H](Cc2ccccc2)NC(=O)[C@H](CC(N)=O)NC(=O)[C@H](CCCCN)NC1=O [Somatostatin, reference compound] |  |  |  |  |  |  |  |  |  | about 10 micrograms per kilogram | about 10 micrograms per kilogram |
